Laboratory results as given in PMC7031696 (Cell chemical biology, 2019).
Read-outs that look alike come from different tables or passages of the source.

Key:
[1] = system: asynchronous 3D7-A10 parasite cultures; assay: Standard 72-h exposure asexual blood stage susceptibility assay (IC50^72h); type: cell-based, Plasmodium falciparum; settings: Plasmodium falciparum, 3D7, 72 h, read-out: Overall (72hr assay) Mean IC50 (IC50^72h)
[2] = system: Plasmodium falciparum 3D7-A10 parasites; assay: Stage specificity assay (8-h exposure of synchronized stages, IC50^8h); type: cell-based; settings: for IC50: Plasmodium falciparum
[3] = system: 3D7-A10 or Dd2-B2 parasites; assay: Resistance selections (single step, pulsing or ramping); type: cell-based, Plasmodium falciparum
[4] = system: 3D7-MR4 trophozoite parasite-infected RBCs; assay: Metabolomic profiling (hydrophilic metabolite changes, UHPLC-MS); type: cell-based, Plasmodium falciparum
[5] = 10 × IC50^72h, 2.5 hr, trophozoites

CCCOCc1cc(CN2CCN(c3cccc(Cl)c3)CC2)c(O)c2ncccc12 [MMV000787]
IC50 [1]: 1.96 µM
Ratio lowest IC50 8hr/IC50 72hr ([2]; 3D7-A10): 0.7
killing in stage specificity assay ([2]; 8-h exposures, survival curves): incomplete killing
IC50 ([2]; 3D7, 8 h, read-out: IC50^8h values at all tested stages, 8-h exposures, all asexual blood stages): > 1 µM
IC50 ([2]; 3D7, read-out: Early rings Mean IC50 (IC50^8h), 8-h exposure 0–8 hr, 3D7-A10, survival at 60 h): 5.74 µM
IC50 ([2]; 3D7, read-out: Early trophozoites Mean IC50 (IC50^8h), 8-h exposure 16–24 hr, 3D7-A10, survival at 60 h): 3.31 µM
IC50 ([2]; 3D7, read-out: Late rings Mean IC50 (IC50^8h), 8-h exposure 8–16 hr, 3D7-A10, survival at 60 h): 7.87 µM
IC50 ([2]; 3D7, read-out: Late trophozoites Mean IC50 (IC50^8h), 8-h exposure 24–32 hr, 3D7-A10, survival at 60 h): 1.35 µM
IC50 ([2]; 3D7, read-out: Schizonts Mean IC50 (IC50^8h), 8-h exposure 32–40 hr, 3D7-A10, survival at 60 h): 5.91 µM
Stage of peak activity (Figure 6) ([2]; period when the parasite was most susceptible (lowest IC50^8h)): late trophozoites
Peak Activity (Table S1) ([2]; stage(s) with the lowest IC50^8h): Late Trophs
outcome of resistance selections (continuous exposure or pulsing) ([3]; 5 × 10^8 to 1 × 10^9 3D7-A10 or Dd2-B2 parasites, 3–6 × IC50^72h): did not result in MMV000787-resistant parasites
minimum inocula of resistance ([3]; from failed selections in 3D7-A10 / Dd2-B2): above 5 × 10^8 parasites
metabolic signature: increases in the pyrimidine precursors dihydroorotate and N-carbamoyl-L-aspartate (mETC disruption) [4, 5]: observed
orotidine 5-P levels [4, 5]: decreased
Log2(fold changes) 3-phosphoglycerate ([4]; metabolite 3-phosphoglycerate, log2 fold change): -0.5371
Log2(fold changes) 4-Pyridoxic acid ([4]; metabolite 4-Pyridoxic acid, log2 fold change): -0.4654
Log2(fold changes) 4-aminobutyrate ([4]; metabolite 4-aminobutyrate, log2 fold change): 0.0414
Log2(fold changes) 4-phosphopantetheine ([4]; metabolite 4-phosphopantetheine, log2 fold change): 0.0000
Log2(fold changes) 4-phosphopantothenate ([4]; metabolite 4-phosphopantothenate, log2 fold change): -0.5845
Log2(fold changes) 5-aminopentanoic acid ([4]; metabolite 5-aminopentanoic acid, log2 fold change): 0.0000
Log2(fold changes) 5-methyl-THF ([4]; metabolite 5-methyl-THF, log2 fold change): 0.0000
Log2(fold changes) 5-phosphoribosyl-1-pyrophosphate ([4]; metabolite 5-phosphoribosyl-1-pyrophosphate, log2 fold change): 0.0000
Log2(fold changes) 6-phospho-D-gluconate ([4]; metabolite 6-phospho-D-gluconate, log2 fold change): -0.3590
Log2(fold change) HVDD ([4]; metabolite HVDD): -0.3092
Log2(fold change) Hydroxyisocaproic acid ([4]; metabolite Hydroxyisocaproic acid): 0.0000
Log2(fold change) IDP ([4]; metabolite IDP): 0.0000
Log2(fold change) IMP ([4]; metabolite IMP): -0.1140
Log2(fold change) Inositol ([4]; metabolite Inositol): 0.0000
Log2(fold change) Isopentyl-PP ([4]; metabolite Isopentyl-PP): -1.2940
Log2(fold change) L-arginino-succinate ([4]; metabolite L-arginino-succinate): 0.4157
Log2(fold change) LD ([4]; metabolite LD): 0.2463
Log2(fold change) Myristoyl/tetradecanoyl-CoA ([4]; metabolite Myristoyl/tetradecanoyl-CoA): 0.0000
Log2(fold change) N-Acetyl-L-alanine ([4]; metabolite N-Acetyl-L-alanine): -0.3215
Log2(fold change) N-acetyl-L-ornithine ([4]; metabolite N-acetyl-L-ornithine): -0.0825
Log2(fold change) N-acetyl-glucosamine-1/6-phosphate ([4]; metabolite N-acetyl-glucosamine-1/6-phosphate): -0.1305
Log2(fold change) N-acetyl-glutamate ([4]; metabolite N-acetyl-glutamate): -0.2597
Log2(fold change) N-acetyl-glutamine ([4]; metabolite N-acetyl-glutamine): -0.3137
Log2(fold change) N-carbamoyl-L-aspartate ([4]; metabolite N-carbamoyl-L-aspartate): 1.8530
Log2(fold change) NAD+ ([4]; metabolite NAD+): -0.4850
Log2(fold change) NADH ([4]; metabolite NADH): 0.6916
Log2(fold change) NADP+ ([4]; metabolite NADP+): -0.1054
Log2(fold change) NADPH ([4]; metabolite NADPH): 0.8357
Log2(fold change) O-acetyl-L-serine ([4]; metabolite O-acetyl-L-serine): 0.0023
Log2(fold change) Octoluse 8/1P ([4]; metabolite Octoluse 8/1P): -0.4530
Log2(fold change) Octoluse Bisphosphate ([4]; metabolite Octoluse Bisphosphate): -0.4981
Log2(fold change) PD ([4]; metabolite PD): 0.8974
Log2(fold change) PE ([4]; metabolite PE): 0.4326
Log2(fold change) PEE ([4]; metabolite PEE): -0.3726
Log2(fold change) PEEK ([4]; metabolite PEEK): 0.6684
Log2(fold change) PVNF ([4]; metabolite PVNF): -0.7950
Log2(fold change) Pyroglutamic acid ([4]; metabolite Pyroglutamic acid): -0.5088
Log2(fold change) Pyrophosphate ([4]; metabolite Pyrophosphate): 0.0000
Log2(fold change) Ribose-5-phosphate ([4]; metabolite Ribose-5-phosphate): -0.4878
Log2(fold change) S-adenosyl-L-homocysteine ([4]; metabolite S-adenosyl-L-homocysteine): -0.1665
Log2(fold change) S-adenosyl-L-methioninamine ([4]; metabolite S-adenosyl-L-methioninamine): 1.4172
Log2(fold change) S-adenosyl-L-methionine ([4]; metabolite S-adenosyl-L-methionine): 0.0000
Log2(fold change) S-methyl-5'-thioadenosine ([4]; metabolite S-methyl-5'-thioadenosine): 0.1323
Log2(fold change) SD ([4]; metabolite SD): 0.5833
Log2(fold change) SDL ([4]; metabolite SDL): 0.0000
Log2(fold change) SID ([4]; metabolite SID): 0.2266
Log2(fold change) Sedoheptulose bisphosphate ([4]; metabolite Sedoheptulose bisphosphate): -0.5430
Log2(fold change) Thiamine pyrophosphate ([4]; metabolite Thiamine pyrophosphate): -0.2018
Log2(fold changes) UDP-D-glucose ([4]; metabolite UDP-D-glucose, log2 fold change): -0.1946
Log2(fold changes) UDP-D-glucuronate ([4]; metabolite UDP-D-glucuronate, log2 fold change): -0.2169
Log2(fold changes) UDP-N-acetyl-glucosamine ([4]; metabolite UDP-N-acetyl-glucosamine, log2 fold change): -0.3874
Log2(fold changes) UDP ([4]; metabolite UDP, log2 fold change): -0.9589
Log2(fold changes) UMP ([4]; metabolite UMP, log2 fold change): -0.1735
Log2(fold changes) UTP ([4]; metabolite UTP, log2 fold change): 0.0000
Log2(fold change) hydroxyphenylpyruvate ([4]; metabolite hydroxyphenylpyruvate): 0.0000
Log2(fold change) hydroxyproline/Aminolevulinate ([4]; metabolite hydroxyproline/Aminolevulinate): -0.3494
Log2(fold change) hypoxanthine ([4]; metabolite hypoxanthine): -0.2301
Log2(fold change) indole ([4]; metabolite indole): 0.0000
Log2(fold change) inosine ([4]; metabolite inosine): -0.0358
Log2(fold change) isoleucine ([4]; metabolite isoleucine): 0.0000
Log2(fold change) lactate ([4]; metabolite lactate): -0.6338
Log2(fold change) leucine ([4]; metabolite leucine): 0.0000
Log2(fold change) lysine ([4]; metabolite lysine): -0.1255
Log2(fold change) malate ([4]; metabolite malate): 0.0012
Log2(fold change) maleic acid ([4]; metabolite maleic acid): 0.0284
Log2(fold change) methionine ([4]; metabolite methionine): -0.0998
Log2(fold change) myo-inositol ([4]; metabolite myo-inositol): -0.7776
Log2(fold change) nicotinamide mononucleotide ([4]; metabolite nicotinamide mononucleotide): -0.2457
Log2(fold change) nicotinate ([4]; metabolite nicotinate): -0.3114
Log2(fold change) ornithine ([4]; metabolite ornithine): 0.0122
Log2(fold change) orotate ([4]; metabolite orotate): 0.0632
Log2(fold change) orotidine-5'-phosphate ([4]; metabolite orotidine-5'-phosphate): -0.3294
Log2(fold change) oxaloacetate ([4]; metabolite oxaloacetate): -0.6486
Log2(fold change) p-aminobenzoate ([4]; metabolite p-aminobenzoate): 0.0000
Log2(fold change) p-hydroxybenzoate ([4]; metabolite p-hydroxybenzoate): 0.0000
Log2(fold change) pantothenate ([4]; metabolite pantothenate): -0.1388
Log2(fold change) phenylalanine ([4]; metabolite phenylalanine): -0.3732
Log2(fold change) phenylpyruvate ([4]; metabolite phenylpyruvate): 0.0000
Log2(fold change) phosphoenolpyruvate ([4]; metabolite phosphoenolpyruvate): -0.1822
Log2(fold change) prephenate ([4]; metabolite prephenate): 0.5798
Log2(fold change) proline ([4]; metabolite proline): -0.4229
Log2(fold change) pyridoxine ([4]; metabolite pyridoxine): -0.3069
Log2(fold change) pyruvate ([4]; metabolite pyruvate): -1.0960
Log2(fold change) riboflavin ([4]; metabolite riboflavin): -0.1793
Log2(fold change) ribose ([4]; metabolite ribose): -0.0760
Log2(fold change) ribose-phosphate ([4]; metabolite ribose-phosphate): -0.9121
Log2(fold change) ribulose-5-phosphate ([4]; metabolite ribulose-5-phosphate): -0.5577
Log2(fold change) serine ([4]; metabolite serine): -0.1539
Log2(fold change) sn-glycerol-3-phosphate ([4]; metabolite sn-glycerol-3-phosphate): 0.0054
Log2(fold change) succinate/Methylmalonic acid ([4]; metabolite succinate/Methylmalonic acid): -0.5977
Log2(fold change) succinyl-CoA/methylmalonyl-CoA ([4]; metabolite succinyl-CoA/methylmalonyl-CoA): 0.0000
Log2(fold change) taurine ([4]; metabolite taurine): -0.2559
Log2(fold change) thiamine ([4]; metabolite thiamine): -0.2060
Log2(fold change) threonine/homoserine ([4]; metabolite threonine/homoserine): -0.2606
Log2(fold change) thymidine ([4]; metabolite thymidine): 0.0000
Log2(fold changes) thymine ([4]; metabolite thymine, log2 fold change): 0.0000
Log2(fold changes) trehalose-6-Phosphate ([4]; metabolite trehalose-6-Phosphate, log2 fold change): 0.0000
Log2(fold changes) tryptophan ([4]; metabolite tryptophan, log2 fold change): -0.8402
Log2(fold changes) tyrosine ([4]; metabolite tyrosine, log2 fold change): -0.1716
Log2(fold changes) uridine ([4]; metabolite uridine, log2 fold change): 0.0000
